Legend:
SK-MEL-2 = assay: Growth inhibition of human SK-MEL-2 cells assessed as cell growth at 10 uM after 48 hrs by sulforhodamine B assay; assay type: functional; conditions: SK-MEL-2, 48 h, read-out: Activity
HCT-15 [1] = assay: Growth inhibition of human HCT15 cells assessed as cell growth at 10 uM after 48 hrs by sulforhodamine B assay; assay type: functional; conditions: HCT-15, 48 h, read-out: Activity
M14 [2] = assay: Growth inhibition of human M14 cells assessed as cell growth at 10 uM after 48 hrs by sulforhodamine B assay; assay type: functional; conditions: M14, 48 h, read-out: Activity
SK-MEL-28 = assay: Growth inhibition of human SK-MEL-28 cells assessed as cell growth at 10 uM after 48 hrs by sulforhodamine B assay; assay type: functional; conditions: SK-MEL-28, 48 h, read-out: Activity
TK-10 = assay: Growth inhibition of human TK10 cells assessed as cell growth at 10 uM after 48 hrs by sulforhodamine B assay; assay type: functional; conditions: TK-10, 48 h, read-out: Activity
OVCAR-4 = assay: Growth inhibition of human OVCAR4 cells assessed as cell growth at 10 uM after 48 hrs by sulforhodamine B assay; assay type: functional; conditions: OVCAR-4, 48 h, read-out: Activity
HCT-15 [3] = assay: Growth inhibition of human HCT15 cells after 48 hrs by sulforhodamine B assay; assay type: functional; conditions: HCT-15, 48 h
A498 = assay: Growth inhibition of human A498 cells after 48 hrs by sulforhodamine B assay; assay type: functional, cell-based; conditions: A498, 48 h; for CC50: read-out: LC50 (the source's name)
SW-620 = assay: Growth inhibition of human SW620 cells assessed as cell growth at 10 uM after 48 hrs by sulforhodamine B assay; assay type: functional; conditions: SW-620, 48 h, read-out: Activity
SN12C = assay: Growth inhibition of human SN12C cells after 48 hrs by sulforhodamine B assay; assay type: functional; conditions: for CC50: read-out: LC50 (the source's name)
UACC-257 = assay: Growth inhibition of human UACC257 cells after 48 hrs by sulforhodamine B assay; assay type: functional; conditions: UACC-257, 48 h; for CC50: read-out: LC50 (the source's name)
HCT-116 = assay: Growth inhibition of human HCT116 cells after 48 hrs by sulforhodamine B assay; assay type: functional; conditions: HCT-116, 48 h; for CC50: read-out: LC50 (the source's name)
M14 [4] = assay: Growth inhibition of human M14 cells after 48 hrs by sulforhodamine B assay; assay type: functional; conditions: M14, 48 h
[5] = Growth inhibition of human Hs 578T cells after 48 hrs by sulforhodamine B assay; assay type: functional; conditions: for CC50: read-out: LC50 (the source's name)
RXF 393 = assay: Growth inhibition of human RXF393 cells after 48 hrs by sulforhodamine B assay; assay type: functional; conditions: RXF 393, 48 h
ACHN = assay: Growth inhibition of human ACHN cells assessed as cell growth at 10 uM after 48 hrs by sulforhodamine B assay; assay type: functional; conditions: read-out: Activity
DU-145 [6] = assay: Growth inhibition of human DU145 cells after 48 hrs by sulforhodamine B assay; assay type: functional; conditions: DU-145, 48 h
[7] = Growth inhibition of human Hs 578T cells assessed as cell growth at 10 uM after 48 hrs by sulforhodamine B assay; assay type: functional; conditions: read-out: Activity
DU-145 [8] = assay: Growth inhibition of human DU145 cells assessed as cell growth at 10 uM after 48 hrs by sulforhodamine B assay; assay type: functional; conditions: DU-145, 48 h, read-out: Activity
HT-29 [9] = assay: Growth inhibition of human HT-29 cells after 48 hrs by sulforhodamine B assay; assay type: functional; conditions: HT-29, 48 h; for CC50: read-out: LC50 (the source's name)
[10] = Growth inhibition of human NCI-ADR-RES cells after 48 hrs by sulforhodamine B assay; assay type: functional; conditions: for CC50: read-out: LC50 (the source's name)
MDA-MB-435 = assay: Growth inhibition of human MDA-MB-435 cells after 48 hrs by sulforhodamine B assay; assay type: functional, cell-based; conditions: MDA-MB-435, 48 h; for CC50: read-out: LC50 (the source's name)
SNB-19 [11] = assay: Growth inhibition of human SNB19 cells assessed as cell growth at 10 uM after 48 hrs by sulforhodamine B assay; assay type: functional; conditions: SNB-19, 48 h, read-out: Activity
PC-3 = assay: Growth inhibition of human PC3 cells after 48 hrs by sulforhodamine B assay; assay type: functional, cell-based; conditions: PC-3, 48 h; for CC50: read-out: LC50 (the source's name)
A549 [12] = assay: Growth inhibition of human A549/ATCC cells after 48 hrs by sulforhodamine B assay; assay type: functional; conditions: A549, 48 h
KM12 = assay: Growth inhibition of human KM12 cells assessed as cell growth at 10 uM after 48 hrs by sulforhodamine B assay; assay type: functional; conditions: KM12, 48 h, read-out: Activity
SNB-75 = assay: Growth inhibition of human SNB75 cells after 48 hrs by sulforhodamine B assay; assay type: functional; conditions: SNB-75, 48 h
786-0 = assay: Growth inhibition of human 786-0 cells assessed as cell growth at 10 uM after 48 hrs by sulforhodamine B assay; assay type: functional; conditions: 786-0, 48 h, read-out: Activity
OVCAR-3 = assay: Growth inhibition of human OVCAR3 cells assessed as cell growth at 10 uM after 48 hrs by sulforhodamine B assay; assay type: functional; conditions: OVCAR-3, 48 h, read-out: Activity
SNB-19 [13] = assay: Growth inhibition of human SNB19 cells after 48 hrs by sulforhodamine B assay; assay type: functional; conditions: SNB-19, 48 h
NCI-H322M = assay: Growth inhibition of human NCI-H322M cells after 48 hrs by sulforhodamine B assay; assay type: functional; conditions: for CC50: read-out: LC50 (the source's name)
A549 [14] = assay: Growth inhibition of human A549/ATCC cells assessed as cell growth at 10 uM after 48 hrs by sulforhodamine B assay; assay type: functional; conditions: A549, 48 h, read-out: Activity
U-251 = assay: Growth inhibition of human U251 cells after 48 hrs by sulforhodamine B assay; assay type: functional; conditions: U-251, 48 h
HT-29 [15] = assay: Growth inhibition of human HT-29 cells assessed as cell growth at 10 uM after 48 hrs by sulforhodamine B assay; assay type: functional; conditions: HT-29, 48 h, read-out: Activity

O=C(Nc1cccc(-n2cc(-c3ccncc3)c(-c3ccc(Cl)c(O)c3)n2)c1)Nc1ccc(Cl)c(Cl)c1
growth at 10 µM (SK-MEL-2): -25.4%
growth at 10 µM (HCT-15 [1]): 19.8%
growth at 10 µM (M14 [2]): 17.2%
growth at 10 µM (SK-MEL-28): 24.6%
growth at 10 µM (TK-10): 7.15%
growth at 10 µM (OVCAR-4): 29.4%
GI50 (HCT-15 [3]): 1230 nM
LC50 (HCT-15 [3]): > 32500 nM
TGI (HCT-15 [3]): 29600 nM
GI50 (A498): 940 nM
IC50 (A498): 940 nM
TGI (A498): 3170 nM
CC50 (A498): > 32500 nM
growth at 10 µM (SW-620): 24.5%
GI50 (SN12C): 1310 nM
TGI (SN12C): > 32500 nM
CC50 (SN12C): > 32500 nM
GI50 (UACC-257): 930 nM
TGI (UACC-257): 3160 nM
CC50 (UACC-257): > 32500 nM
GI50 (HCT-116): 1190 nM
TGI (HCT-116): 5730 nM
CC50 (HCT-116): > 32500 nM
GI50 (M14 [4]): 1180 nM
LC50 (concentration killing 50% of cells) (M14 [4]): > 32500 nM
TGI (M14 [4]): 6970 nM
GI50 [5]: 785 nM
TGI [5]: 3150 nM
CC50 [5]: > 32500 nM
GI50 (RXF 393): 1000 nM
LC50 (concentration killing 50% of cells) (RXF 393): > 32500 nM
TGI (RXF 393): 6400 nM
growth at 10 µM (ACHN): 12.8%
GI50 (DU-145 [6]): 1500 nM
LC50 (DU-145 [6]): > 32500 nM
TGI (DU-145 [6]): > 32500 nM
growth at 10 µM [7]: 36.1%
growth at 10 µM (DU-145 [8]): 25.9%
GI50 (HT-29 [9]): 4890 nM
TGI (HT-29 [9]): > 32500 nM
CC50 (HT-29 [9]): > 32500 nM
GI50 [10]: 2740 nM
TGI [10]: > 32500 nM
CC50 [10]: > 32500 nM
GI50 (MDA-MB-435): 1100 nM
IC50 (MDA-MB-435): 1100 nM
TGI (MDA-MB-435): 6050 nM
CC50 (MDA-MB-435): > 32500 nM
growth at 10 µM (SNB-19 [11]): 30.3%
GI50 (PC-3): 834 nM
IC50 (PC-3): 830 nM
TGI (PC-3): > 32500 nM
CC50 (PC-3): > 32500 nM
GI50 (A549 [12]): 1010 nM
LC50 (concentration killing 50% of starting cells) (A549 [12]): > 32500 nM
TGI (A549 [12]): > 32500 nM
growth at 10 µM (KM12): 8.15%
GI50 (SNB-75): 1090 nM
LC50 (lethal concentration, 50% net cell kill) (SNB-75): > 32500 nM
TGI (SNB-75): 12200 nM
growth at 10 µM (786-0): 30.1%
growth at 10 µM (OVCAR-3): -4.74%
GI50 (SNB-19 [13]): 1460 nM
LC50 (concentration killing 50% of cells) (SNB-19 [13]): > 32500 nM
TGI (SNB-19 [13]): > 32500 nM
GI50 (NCI-H322M): 2890 nM
TGI (NCI-H322M): > 32500 nM
CC50 (NCI-H322M): > 32500 nM
growth at 10 µM (A549 [14]): 4.51%
GI50 (U-251): 1510 nM
LC50 (concentration killing 50% of cells) (U-251): > 32500 nM
TGI (U-251): 9680 nM
growth at 10 µM (HT-29 [15]): 45.9%

O=C(Nc1cccc(-n2cc(-c3ccncc3)c(-c3ccc(Cl)c(O)c3)n2)c1)Nc1ccc(Cl)c(C(F)(F)F)c1
growth at 10 µM (SK-MEL-2): -60.4%
growth at 10 µM (HCT-15 [1]): 1.04%
growth at 10 µM (M14 [2]): -25.5%
growth at 10 µM (SK-MEL-28): -31.5%
growth at 10 µM (TK-10): -1.62%
growth at 10 µM (OVCAR-4): -3.42%
GI50 (HCT-15 [3]): 867 nM
LC50 (HCT-15 [3]): > 32500 nM
TGI (HCT-15 [3]): 13800 nM
GI50 (A498): 1400 nM
IC50 (A498): 1400 nM
TGI (A498): 6900 nM
CC50 (A498): > 32500 nM
growth at 10 µM (SW-620): -19.7%
GI50 (SN12C): 1120 nM
TGI (SN12C): 17100 nM
CC50 (SN12C): > 32500 nM
GI50 (UACC-257): 768 nM
TGI (UACC-257): 2100 nM
CC50 (UACC-257): 8390 nM
GI50 (HCT-116): 998 nM
TGI (HCT-116): 3940 nM
CC50 (HCT-116): > 32500 nM
GI50 (M14 [4]): 886 nM
LC50 (concentration killing 50% of cells) (M14 [4]): > 32500 nM
TGI (M14 [4]): 2770 nM
GI50 [5]: 797 nM
TGI [5]: 11200 nM
CC50 [5]: > 32500 nM
GI50 (RXF 393): 508 nM
LC50 (concentration killing 50% of cells) (RXF 393): > 32500 nM
TGI (RXF 393): 1670 nM
growth at 10 µM (ACHN): 6.62%
GI50 (DU-145 [6]): 1130 nM
LC50 (DU-145 [6]): 25100 nM
TGI (DU-145 [6]): 4630 nM
growth at 10 µM [7]: -7.39%
growth at 10 µM (DU-145 [8]): -17%
GI50 (HT-29 [9]): 1280 nM
TGI (HT-29 [9]): 5730 nM
CC50 (HT-29 [9]): 22600 nM
GI50 [10]: 844 nM
TGI [10]: 2750 nM
CC50 [10]: > 32500 nM
GI50 (MDA-MB-435): 660 nM
IC50 (MDA-MB-435): 660 nM
TGI (MDA-MB-435): 1770 nM
CC50 (MDA-MB-435): 21500 nM
growth at 10 µM (SNB-19 [11]): -28.8%
IC50 (PC-3): 590 nM
CC50 (PC-3): > 32500 nM
GI50 (A549 [12]): 927 nM
LC50 (concentration killing 50% of starting cells) (A549 [12]): > 32500 nM
TGI (A549 [12]): 5090 nM
growth at 10 µM (KM12): -27.3%
GI50 (SNB-75): 678 nM
LC50 (lethal concentration, 50% net cell kill) (SNB-75): > 32500 nM
TGI (SNB-75): 3200 nM
growth at 10 µM (786-0): 4.7%
growth at 10 µM (OVCAR-3): -43%
GI50 (SNB-19 [13]): 1120 nM
LC50 (concentration killing 50% of cells) (SNB-19 [13]): > 32500 nM
TGI (SNB-19 [13]): 4860 nM
GI50 (NCI-H322M): 1090 nM
TGI (NCI-H322M): 4480 nM
CC50 (NCI-H322M): 24700 nM
growth at 10 µM (A549 [14]): -21.3%
GI50 (U-251): 548 nM
LC50 (concentration killing 50% of cells) (U-251): 2740 nM
TGI (U-251): 1230 nM
growth at 10 µM (HT-29 [15]): -6.5%

From ChEMBL document CHEMBL2440076, “New triarylpyrazoles as broad-spectrum anticancer agents: design, synthesis, and biological evaluation” (Eur J Med Chem, 2013)
